Experimental data reported in PubChem BioAssay (NCI).
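Tested at 5 concentrations; 48 h exposure; 96-well plates; endpoints linearly interpolated, else capped at highest concentration. TGI is the concentration that stops growth completely.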 Where a SMILES comes first, the peptide text is derived from it. The star is where a group is joined. Boc = CC(C)(C)OC(=O)*

Assays:
Test in all cases: DTP human tumour cell line panel, 48 h
[1] = tested on: SNB-75 CNS
[2] = tested on: SR leukemia
[3] = tested on: A498 renal
[4] = tested on: SNB-19 CNS
[5] = tested on: UACC-257 melanoma
[6] = tested on: OVCAR-3 ovarian
[7] = tested on: MALME-3M melanoma
[8] = tested on: SK-MEL-5 melanoma
[9] = tested on: MDA-MB-231 breast
[10] = tested on: SN12C renal

SMILES	TGI [1] [µM]	TGI [2] [µM]	TGI [3] [µM]	TGI [4] [µM]	TGI [5] [µM]	TGI [6] [µM]	TGI [7] [µM]	TGI [8] [µM]	TGI [9] [µM]	TGI [10] [µM]
C=C(C)[C@@H](O)[C@H](O)C[C@H](C)C1CC[C@]2(C)C1=CC[C@@H]1[C@@]3(C)CC[C@@H](OC(C)=O)C(C)(C)[C@@H]3C[C@@H](OC3OC(COC(C)=O)C(O)C(O)C3O)[C@]12C (stereo partly drawn)	8.32	4.2	10.4	14.7	8.53	4.79	4.81	3.73	6.64	11.3
O[C@@H]1C[C@H](Cl)c2c(Cl)sc(Cl)c21	> 100	> 100	–	> 100	> 100	> 100	> 100	> 100	> 100	> 100
O=C1/C(=C/c2ccc(O)cc2)CCCC1CN1CCCCC1 (stereo not drawn)	22.5	4.35	20.4	31.8	6.72	14.9	3.36	17.8	4.43	7.05
COC(=O)C(Cc1ccccc1)NC(=O)C(CS)NC(=O)OC(C)(C)C (stereo not drawn) (Boc-Cys-Phe-OMe; configuration not given here)	> 100	> 100	> 100	> 100	> 100	> 100	> 100	> 100	> 100	> 100
CSc1ncc2c(n1)-c1ccccc1OC2N1CCOCC1 (stereo not drawn)	> 100	> 100	56.7	> 100	> 100	> 100	–	> 100	> 100	> 100
CCN1c2ccccc2NC(=S)c2c1n[nH]c2-c1ccccc1	> 100	67.3	–	–	> 100	> 100	–	43.2	61.8	> 100
Fc1ccc(-c2sc(-c3ccsc3)cc2Cc2ccsc2)cc1	> 10	> 10	–	–	> 10	–	> 10	> 10	> 10	> 10
CC(=O)OCC1OC(n2cnc3nc(Br)[nH]c(=O)c32)C(OC(C)=O)C1OC(C)=O (stereo not drawn)	> 100	> 100	> 100	> 100	> 100	> 100	> 100	> 100	> 100	> 100
Cc1c(Cc2ccccc2)n(C(C)OCCN(OC(=O)Oc2ccccc2)C(=O)Oc2ccccc2)c(=O)[nH]c1=O (stereo not drawn)	20.6	> 100	–	> 100	30.2	37.7	–	28.4	38.5	40.5
CC(=O)C1=C(C)O[C@@H]2O[C@H](COCc3ccccc3)[C@@H](OCc3ccccc3)[C@H](O)[C@@H]2S1	77.1	46.1	71	> 100	39.7	29.4	44.5	32.2	40.1	37.6
COc1cc(C2S/C(=C/c3ccccc3)C(=O)N2Cc2ccccc2)cc(OC)c1OC (stereo not drawn)	73.3	57.2	> 100	> 100	> 100	–	–	> 100	> 100	> 100
